The values below come from US20060040870A1, “Enhancement of apoptosis by caspase-9 inhibitors” (priority 2004, published 2006).

The star is where a group is joined. Cbz = O=C(OCc1ccccc1)*; CH2F = FC*

One experiment concerns BLIN-4E cells. Nature of the experiment: Apoptosis by Annexin V staining and flow cytometry, BLIN-4E. It counts as cell-based, human. Particulars: 50 μM, 18 hours. How it is done: (§1) FIG. 4 is a pair of graphs showing the effect of […] on various cell lines, as determined by Annexin V staining and flow cytometry. The cells included the B-cell precursor ALL cell lines […], and NALM-6, the RAMOS, RAJI, and DAUDI Burkitt lymphoma cell lines, the CCRF-CEM, JURKAT, and H9 T lymphoma cell lines, the K-562 erythroleukemia cell line, and resting or activated (i.e., CD3/CD28 cross-linked) normal human T cells. […] Flow cytometry. Quantitation of apoptotic events was conducted using a FACS Calibur (BD Immunocytometry Systems). All analyses were conducted on cells with lymphoid light scatter characteristics (i.e., low to medium forward scatter and low 90° side scatter). iii. Annexin V. […] Cells were stained according to the manufacturers recommendations.
A general note: Flow cytometry measures light scatter and fluorescence of single cells or particles in a stream.

For the next experiment, the system named is leukemic cell lines. Put plainly: Staurosporine response of panel of leukemic cell lines, Annexin V. It counts as cell-based. The conditions noted are these: staurosporine plus 50 μM C9i; leukemic cells that responded to C9i alone. How it is done: as §1, with “recommendations. The inventors expanded their analysis of […] to other leukemic cell lines. […] The JURKAT T lymphoma cell line was also sensitive. In contrast, the RAJI and DAUDI Burkitt lymphoma cell lines, the H9 T lymphoma cell line, and the K-562 erythroleukemia cell line were insensitive to […]. […] The inventors also tested whether […] would potentiate the apoptotic effect of the widely used serine/threonine kinase inhibitor staurosporine. […] Thus, the leukemic cell lines were generally responsive to both […] and staurosporine, or responsive to neither.” for “recommendations.”

Experiment [1] relates to CCRF-CEM T lymphoma cell line. Put plainly: Apoptosis by Annexin V staining and flow cytometry, CCRF-CEM. Type of experiment: cell-based. Particulars: 50 μM, 18 hours. How it is done:
as §1

A further experiment concerns BLIN-2 cells. Put plainly: Apoptosis by Annexin V staining and flow cytometry, BLIN-2. Type of experiment: cell-based, human. Particulars: BLIN-2, 50 μM, 18 hours. How it is done: Flow cytometry. Quantitation of apoptotic events was conducted using a FACS Calibur (BD Immunocytometry Systems). All analyses were conducted on cells with lymphoid light scatter characteristics (i.e., low to medium forward scatter and low 90° side scatter).
iii. Annexin V. FITC-labeled Annexin V (BD Pharmingen, San Diego, Calif.) was used to detect external phosphatidylserine residues appearing on the external surface of early apoptotic cells (Koopman Blood. 1994;84:1415-1420). Cells were stained according to the manufacturers recommendations.
General experimental strategy. BLIN cell lines were removed from fibroblast monolayers, washed once and resuspended to 7.5×10^5/ml in X-VIVO 10. Two hundred μL of resuspended cells were added to 96-well flat-bottom microtiter plates (ISC Bioexpress, Kaysville, Vt.), followed by 0.5-1.0 μL of caspase inhibitors in DMSO. An identical volume of DMSO alone was added to separate wells as a vehicle control. This final DMSO concentration of 0.25-0.5% vol/vol had no adverse affect on any of the BLIN cell lines. At the indicated times the entire content of individual wells was harvested and stained in the fluorescent protocols described above.
The inventors carried out experiments to test the influence of specific amino acid substitutions on the proapoptotic activity Z-LEHD-fmk. […]

The test system of experiment [2] is PARP (caspase-3/caspase-7 substrate). Nature of the experiment: Western blotting of PARP cleavage in BLIN-3 and BLIN-4L. Type of experiment: cell-based, human. Particulars: overnight incubation of BLIN-3 and BLIN-4L cells, 50 μM. How it is done: Western blotting. This method was conducted essentially as previously described.^20 The antibodies used were: rabbit anti-caspase-2 (catalog # sc-625, Santa Cruz Biotechnology Inc., Santa Cruz, Calif.), rabbit anti-caspase-3 (catalog # 9661, Upstate Cell Signaling Solutions, Waltham, Mass.), rabbit anti-caspase-6 (catalog # 9761, Upstate), rabbit anti-caspase-9 (catalog # 9502, Upstate), mouse anti-PARP (catalog # 556494, Pharmingen), and rabbit anti-Bid (catalog # AF846, R&D Systems). The antibodies to caspase-2 and caspase-9 were generated to the procaspase isoforms, whereas the antibodies to caspase-3 and caspase-6 were generated to cleavage products.
As expected, inclusion of 50 μM PCi had no effect. The degree of PARP cleavage in the presence of C9i (greater in BLIN-3 than BLIN-4L) correlated with the percentage of Annexin V+ cells (FIG. 3).
For orientation: Immunoblotting shows a protein as a band on a membrane.

The test system of the next experiment is CD33+ myeloid cells. Put plainly: Annexin V staining of sorted cord blood-derived CD33+ myeloid cells removed from MS-5 stroma. Type of experiment: cell-based, human. The conditions noted are these: cultured 18 hours, DMSO control 27.9 ± 3.9, Time 0 <10.
In the next experiment the test system is NALM-6 cells. Nature of the experiment: Apoptosis by Annexin V staining and flow cytometry, NALM-6. Type of experiment: cell-based. The conditions noted are these: NALM-6, 50 μM, 18 hours. How it is done:
as §1

In the next experiment the test system is H9 T lymphoma cell line. Put plainly: Apoptosis by Annexin V staining and flow cytometry, H9. Type of experiment: cell-based. The conditions noted are these: H9, 50 μM, 18 hours. How it is done: as §1
Experiment [3] deals with activated (CD3/CD28 cross-linked) normal human T cells. Nature of the experiment: Apoptosis by Annexin V staining and flow cytometry, activated normal T cells. Type of experiment: cell-based. Particulars: 50 μM, 18 hours. How it is done: as §1

For the substance “Z-LEHD-fmk (Cbz-LEHD-CH2F; SMILES CC(C)C[C@H](NC(=O)OCc1ccccc1)C(=O)N[C@@H](CCC(=O)O)C(=O)N[C@@H](Cc1c[nH]cn1)C(=O)N[C@@H](CC(=O)O)C(=O)CF) [C9i]”, the “sensitivity (fold-increase in Annexin V+ cells vs DMSO)” value in the experiment on BLIN-4E cells is reported as “sensitive”; in [1] it was “extremely sensitive”; in the experiment on BLIN-2 cells, “less sensitive than the others”; with NALM-6 cells it was “sensitive”; in the experiment with H9 T lymphoma cell line, “insensitive”; in experiment [3] it was “marginally sensitive”. The “potentiation of the apoptotic effect of staurosporine” value in the experiment on leukemic cell lines is on record as “enhanced the staurosporine response”. Besides, in [2], the “cleavage of the caspase-3/caspase-7 substrate PARP” value is “led to cleavage”. Further, in the experiment with CD33+ myeloid cells, the “percentage of total Annexin V+ cells (PI+ and PI−), mean ± SD” value was found to be 22.3 ± 1.2%.
